Measured values as given in US20250059185A1 (Hoffmann-La Roche Inc., priority 2021, published 2025).

Target: MAGL (Homo sapiens (Human), UniProt Q99685)
Assay: 2-AG assay (MAGL inhibitory activity, hydrolysis of 2-arachidonoylglycerol followed by mass spectrometry)
Type: biochemical
Settings: 50 pM MAGL protein, 15 min pre-incubation, 30 min incubation at RT
Method in brief: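 Human MAGL (50 pM final) preincubated 15 min at RT with compound (3-fold dilutions, 12.5 μM to 0.8 pM final) in 50 mM TRIS, 1 mM EDTA, 0.01% Tween-20, 2.5% DMSO. Reaction with […] 2-AG ran 30 min at RT, then was quenched with acetonitrile containing d8-arachidonic acid. Arachidonic acid measured by SPE–triple-quad MS (negative ESI), activity from the arachidonic/d8-arachidonic acid intensity ratio.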

MAGL, sequence (Q99685 whole entry, species assumed): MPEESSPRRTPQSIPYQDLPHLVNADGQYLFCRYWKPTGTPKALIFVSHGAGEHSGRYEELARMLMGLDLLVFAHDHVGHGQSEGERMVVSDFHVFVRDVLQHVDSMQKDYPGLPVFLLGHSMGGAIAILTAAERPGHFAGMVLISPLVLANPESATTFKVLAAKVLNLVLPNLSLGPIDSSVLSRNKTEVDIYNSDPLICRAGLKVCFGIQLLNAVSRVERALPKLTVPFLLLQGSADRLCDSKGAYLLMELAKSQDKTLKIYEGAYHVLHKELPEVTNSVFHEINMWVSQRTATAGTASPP

| IC50 [nM] | SMILES |
| --- | --- |
| 472 | C[C@H]1c2nn(C)c(-c3cc(Cl)cc(C4(NS(C)(=O)=O)CC4)c3)c2CCN1C(=O)c1cc(F)cc(-c2cn[nH]c2)c1F [Example 94, N-[1-[3-chloro-5-[(7S)-6-[2,5-difluoro-3-(1H-pyrazol-4-yl)benzoyl]-2,7-dimethyl-5,7-dihydro-4H-pyrazolo[3,4-c]pyridin-3-yl]phenyl]cyclopropyl]methanesulfonamide] |
| 16.9 | COc1cccc(C(=O)N2CCc3c(nn(C)c3-c3cc(Cl)cc(CC(C)(C)O)c3)[C@@H]2C)c1Cl [Example 95, [(7S)-3-[3-chloro-5-(2-hydroxy-2-methyl-propyl)phenyl]-2,7-dimethyl-5,7-dihydro-4H-pyrazolo[3,4-c]pyridin-6-yl]-(2-chloro-3-methoxy-phenyl)methanone] |
| 1260 | C[C@@H]1c2nn(C)c(-c3cncc(C(F)(F)F)n3)c2CCN1C(=O)c1ncn(-c2ccc[nH]c2=O)n1 [Example 96, 3-[3-[(7R)-2,7-dimethyl-3-[6-(trifluoromethyl)pyrazin-2-yl]-5,7-dihydro-4H-pyrazolo[3,4-c]pyridine-6-carbonyl]-1,2,4-triazol-1-yl]-1H-pyridin-2-one] |
| 8.44 | CC1c2nn(C)c(-c3cc(F)cc(F)c3)c2CCN1C(=O)c1cc(F)cc(C2=CC(Cl)C(=O)N=C2)c1Cl (stereo not shown) [Example 97, 3-chloro-5-[2-chloro-3-[3-(3,5-difluorophenyl)-2,7-dimethyl-5,7-dihydro-4H-pyrazolo[3,4-c]pyridine-6-carbonyl]-5-fluoro-phenyl]-3H-pyridin-2-one] |
| 5.97 | C[C@H]1c2nn(C)c(-c3cc(F)cc(F)c3)c2CCN1C(=O)c1cc(F)cc(C2=CC(Cl)C(=O)N=C2)c1Cl (stereo partly drawn) [Example 98, 3-chloro-5-[2-chloro-3-[(7S)-3-(3,5-difluorophenyl)-2,7-dimethyl-5,7-dihydro-4H-pyrazolo[3,4-c]pyridine-6-carbonyl]-5-fluoro-phenyl]-3H-pyridin-2-one] |
| 767 | C[C@@H]1c2nn(C)c(-c3cc(F)cc(F)c3)c2CCN1C(=O)c1cc(F)cc(C2=CC(Cl)C(=O)N=C2)c1Cl (stereo partly drawn) [Example 99, 3-chloro-5-[2-chloro-3-[(7R)-3-(3,5-difluorophenyl)-2,7-dimethyl-5,7-dihydro-4H-pyrazolo[3,4-c]pyridine-6-carbonyl]-5-fluoro-phenyl]-3H-pyridin-2-one] |
| 31.9 | C[C@H]1c2nn(C)c(-c3cc(F)cc(F)c3)c2CCN1C(=O)c1ncn(-c2cc(Cl)cnc2O)n1 [Example 100, [1-(5-chloro-2-hydroxy-3-pyridyl)-1,2,4-triazol-3-yl]-[(7S)-3-(3,5-difluorophenyl)-2,7-dimethyl-5,7-dihydro-4H-pyrazolo[3,4-c]pyridin-6-yl]methanone] |
| 3020 | C[C@@H]1c2nn(C)c(-c3cc(F)cc(F)c3)c2CCN1C(=O)c1ncn(-c2cc(Cl)cnc2O)n1 [Example 101, [1-(5-chloro-2-hydroxy-3-pyridyl)-1,2,4-triazol-3-yl]-[(7R)-3-(3,5-difluorophenyl)-2,7-dimethyl-5,7-dihydro-4H-pyrazolo[3,4-c]pyridin-6-yl]methanone] |
| 1.53 | C[C@H]1c2nn(C)c(-c3cc(F)cc(F)c3)c2CCN1C(=O)c1cc(F)cc(CCc2cn[nH]c2)c1Cl [Example 102, [2-chloro-5-fluoro-3-[2-(JH-pyrazol-4-yl)ethyl]phenyl]-[(7S)-3-(3,5-difluorophenyl)-2,7-dimethyl-5,7-dihydro-4H-pyrazolo[3,4-c]pyridin-6-yl]methanone] |
| 440 | C[C@@H]1c2nn(C)c(-c3cc(F)cc(F)c3)c2CCN1C(=O)c1cc(F)cc(CCc2cn[nH]c2)c1Cl [Example 103, [2-chloro-5-fluoro-3-[2-(1H-pyrazol-4-yl)ethyl]phenyl]-[(7R)-3-(3,5-difluorophenyl)-2,7-dimethyl-5,7-dihydro-4H-pyrazolo[3,4-c]pyridin-6-yl]methanone] |
